Data as given in patent US20250171432A1, “COMPOUNDS AND METHODS OF USE” (Tango Therapeutics, Inc., priority 2022, published 2025).

Key:
Format in all cases: cell-based
[1] = tested on: SDMA (PRMT5 activity) in HAP1 MTAP-intact cell line; assay: SDMA in-cell western assay, HAP1 MTAP-intact; details: Homo sapiens, SDMA in-cell western, HAP1 MTAP-intact cells, 24 hours compound incubation
[2] = tested on: HAP1 MTAP-deleted cell line; assay: Viability assay (CellTiter-Glo), HAP1 MTAP-deleted; details: Homo sapiens, 168 h, HAP1 MTAP-deleted cells, 7 days
How it was run: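 HAP1 MTAP-deleted and MTAP-intact cells seeded, then dosed next day (n=3, 0.2% DMSO) and grown 7 days. Viability by CellTiter-Glo luminescence, expressed as % of DMSO control per cell line.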

[3] = tested on: SDMA (PRMT5 activity) in HAP1 MTAP-deleted cell line; assay: SDMA in-cell western assay, HAP1 MTAP-deleted; details: for IC50 / IC90: Homo sapiens, SDMA in-cell western, HAP1 MTAP-deleted cells, 24 hours compound incubation; for Hap1 MTAP intact/deleted ratio: ratio of SDMA IC50 in HAP1 MTAP-intact to HAP1 MTAP-deleted cell line

SMILES | IC50 ([1]; HAP1, 24 h) [nM] | IC50 [2] [nM] | IC50 [3] [nM] | IC90 [3] [nM] | Hap1 MTAP intact/deleted ratio [3] | IC50 [1] [nM]
CCc1cc(NC(=O)C(=O)N2C[C@@H](C)CC[C@@H]2c2ccc3sc(CC(C)N4CCCC4)nc3c2)cnc1N (mixture of isomers) [Compound 116, N-(6-amino-5-ethylpyridin-3-yl)-2-((2R,5S)-5-methyl-2-(2-(2-(pyrrolidin-1-yl)propyl)benzo[d]thiazol-5-yl)piperidin-1-yl)-2-oxoacetamide] | > 50 | < 100 | < 5 | < 75 | A (“A” indicates an IC50 ratio greater than or equal to 30 fold) | 
CCc1cc(NC(=O)C(=O)N2C[C@@H](C)CC[C@@H]2c2ccc3oc(C4CCN(C)CC4)nc3c2)cnc1N [Compound 53, N-(6-amino-5-ethylpyridin-3-yl)-2-((2R,5S)-5-methyl-2-(2-(1-methylpiperidin-4-yl)benzo[d]oxazol-5-yl)piperidin-1-yl)-2-oxoacetamide] |  | < 100 | < 5 | < 75 | A (“A” indicates an IC50 ratio greater than or equal to 30 fold) | > 50
CCc1cc(NC(=O)C(=O)N2C[C@@H](C)CC[C@@H]2c2ccc3sc([C@@H]4CN(C)C[C@H]4C)nc3c2)cnc1N (mixture of isomers) [Compound 10, N-(6-amino-5-ethylpyridin-3-yl)-2-((2R,5S)-2-(2-(rac-(3S,4S)-1,4-dimethylpyrrolidin-3-yl)benzo[d]thiazol-5-yl)-5-methylpiperidin-1-yl)-2-oxoacetamide] | > 50 | < 100 | < 5 | < 75 | A (“A” indicates an IC50 ratio greater than or equal to 30 fold) | 
CCc1cc(NC(=O)C(=O)N2C[C@@H](C)CC[C@@H]2c2ccc3cn(C4CCCN(C)C4)nc3c2)cnc1N (single isomer, unassigned) [Compound 80] | 5 to 50 | < 100 | < 5 | < 75 | C (“C” indicates an IC50 ratio of less than 15 fold) | 
C[C@H]1CC[C@H](c2ccc3sc(C4CCN(C)C(C)(C)C4)nc3c2)N(C(=O)C(=O)Nc2cnc(N)c(C3COC3)c2)C1 (single isomer, unassigned) [Compound 34] | 5 to 50 | < 100 | < 5 | < 75 | C (“C” indicates an IC50 ratio of less than 15 fold) | 
COc1ncc(NC(=O)C(=O)N2C[C@@H](C)CC[C@@H]2c2ccc3sc([C@H]4CN(C)C(C)(C)C4)nc3c2)cc1C(N)=O [Compound 65, 2-methoxy-5-[[2-oxo-2-[(2R,5S)-5-methyl-2-[2-[(3R)-1,5,5-trimethylpyrrolidin-3-yl]-1,3-benzothiazol-5-yl]-1-piperidyl]acetyl]amino]pyridine-3-carboxamide] | > 50 | < 100 | < 5 | < 75 | B (“B” indicates an IC50 ratio greater than or equal to 15 fold but lower than 30 fold) | 
CCc1cc(NC(=O)C(=O)N2C[C@@H](C)CC[C@@H]2c2ccc3cccnc3c2)cnc1N [Compound 76, N-(6-amino-5-ethylpyridin-3-yl)-2-((2R,5S)-5-methyl-2-(quinolin-7-yl)piperidin-1-yl)-2-oxoacetamide] | > 50 | 100 to 1000 | 5 to 50 | > 125 | A (“A” indicates an IC50 ratio greater than or equal to 30 fold) | 
COc1ncc(NC(=O)C(=O)N2C[C@@H](C)CC[C@@H]2c2ccc3cn([C@H]4CCOC4)nc3c2)cc1C(N)=O (racemic) [Compound 97, 2-methoxy-5-[[2-oxo-2-[rac-(2R,5S)-5-methyl-2-(2-tetrahydrofuran-3-ylindazol-6-yl)-1-piperidyl]acetyl]amino]pyridine-3-carboxamide] | > 50 | 100 to 1000 | 5 to 50 | 75 to 125 | A (“A” indicates an IC50 ratio greater than or equal to 30 fold) | 
COc1ncc(NC(=O)C(=O)N2CCCC[C@@H]2c2ccc3sc(C4CCN(C)CC4)nc3c2)cc1C(N)=O [Compound 29, 2-methoxy-5-(2-(2-(2-(1-methylpiperidin-4-yl)benzo[d]thiazol-5-yl)piperidin-1-yl)-2-oxoacetamido)nicotinamide] | > 50 | 100 to 1000 | 5 to 50 | > 125 | A (“A” indicates an IC50 ratio greater than or equal to 30 fold) | 
CCc1cc(NC(=O)C(=O)N2C[C@@H](C)CC[C@@H]2c2ccc3sc([C@@H]4C[C@@H](C)CN(C)C4)nc3c2)cnc1N (relative stereo) [Compound 23, N-(6-amino-5-ethylpyridin-3-yl)-2-((2R,5S)-2-(2-(1,5-dimethylpiperidin-3-yl)benzo[d]thiazol-5-yl)-5-methylpiperidin-1-yl)-2-oxoacetamide] | 5 to 50 | < 100 | < 5 | < 75 | B (“B” indicates an IC50 ratio greater than or equal to 15 fold but lower than 30 fold) | 
CCc1cc(NC(=O)C(=O)N2C[C@@H](C)CC[C@@H]2c2ccc3cn(C4CCOCC4)nc3c2)cnc1N [Compound 17, N-(6-amino-5-ethyl-3-pyridyl)-2-oxo-2-[(2R,5S)-5-methyl-2-(2-tetrahydropyran-4-ylindazol-6-yl)-1-piperidyl]acetamide] | > 50 | < 100 | 5 to 50 | < 75 | A (“A” indicates an IC50 ratio greater than or equal to 30 fold) | 
COc1ncc(NC(=O)C(=O)N2C[C@@H](C)CC[C@@H]2c2ccc3sc([C@H]4CN(C)CCO4)nc3c2)cc1C(N)=O [Compound 124] | > 50 | 100 to 1000 | 5 to 50 | > 125 | A (“A” indicates an IC50 ratio greater than or equal to 30 fold) | 
COc1ncc(NC(=O)C(=O)N2C[C@@H](C)CC[C@@H]2c2ccc3sc([C@@H]4CN(C)CC4(C)C)nc3c2)cc1C(N)=O (single isomer, unassigned) [Compound 74] | 5 to 50 | < 100 | < 5 | < 75 | B (“B” indicates an IC50 ratio greater than or equal to 15 fold but lower than 30 fold) | 
Cc1cc2[nH]c(C(=O)N3C[C@@H](C)CC[C@@H]3c3ccc4sc(C5CCN(C)CC5)nc4c3)cc2nc1N [Compound 110, (5-amino-6-methyl-1H-pyrrolo[3,2-b]pyridin-2-yl)((2R,5S)-5-methyl-2-(2-(1-methylpiperidin-4-yl)benzo[d]thiazol-5-yl)piperidin-1-yl)methanone] | > 50 | < 100 | < 5 | < 75 | A (“A” indicates an IC50 ratio greater than or equal to 30 fold) | 
COc1ncc(NC(=O)C(=O)N2C[C@@H](C)CC[C@@H]2c2ccc3sc([C@H]4C[C@@H]5CN(C)C[C@@H]5C4)nc3c2)cc1C(N)=O (single isomer, unassigned) [Compound 67] | > 50 | < 100 | < 5 | < 75 | A (“A” indicates an IC50 ratio greater than or equal to 30 fold) | 
CCc1cc(NC(=O)C(=O)N2C[C@H](C)CC[C@@H]2c2ccc3sc([C@H]4C[C@H](N(C)C)C4)nc3c2)cnc1N [Compound 119, N-(6-amino-5-ethyl-3-pyridyl)-2-oxo-2-[(2R,5R)-2-[2-[3-(dimethylamino)cyclobutyl]-1,3-benzothiazol-5-yl]-5-methyl-1-piperidyl]acetamide] | > 50 | > 1000 | > 50 | > 125 | C (“C” indicates an IC50 ratio of less than 15 fold) | 
CCc1cc(NC(=O)C(=O)N2C[C@@H](C)CC[C@@H]2c2ccc3sc([C@@H]4C[C@@H](C)CN(C)C4)nc3c2)cnc1N (racemic) [Compound 118, N-(6-amino-5-ethylpyridin-3-yl)-2-((2R,5S)-2-(2-(1,5-dimethylpiperidin-3-yl)benzo[d]thiazol-5-yl)-5-methylpiperidin-1-yl)-2-oxoacetamide] | 5 to 50 | < 100 | < 5 | < 75 | C (“C” indicates an IC50 ratio of less than 15 fold) | 
CCc1cc(NC(=O)C(=O)N2C[C@@H](C)CC[C@@H]2c2ccc3sc(C[C@H]4CCN(C)C[C@@H]4C)nc3c2)cnc1N (racemic) [Compound 18, N-(6-amino-5-ethylpyridin-3-yl)-2-((2R,5S)-2-(2-((1,3-dimethylpiperidin-4-yl)methyl)benzo[d]thiazol-5-yl)-5-methylpiperidin-1-yl)-2-oxoacetamide] | 5 to 50 | < 100 | < 5 | < 75 | A (“A” indicates an IC50 ratio greater than or equal to 30 fold) | 
CCc1cc(NC(=O)C(=O)N2C[C@@H](C)CC[C@@H]2c2ccc3nn([C@@H]4CCN(C)C(C)(C)C4)cc3c2)cnc1N [Compound 108] | 5 to 50 | < 100 | < 5 | < 75 | B (“B” indicates an IC50 ratio greater than or equal to 15 fold but lower than 30 fold) | 
CCc1cc(NC(=O)C(=O)N2C[C@@H](C)CC[C@@H]2c2ccc3nn([C@H]4CCN(C)C(C)(C)C4)cc3c2)cnc1N [Compound 44] | 5 to 50 | < 100 | < 5 | < 75 | B (“B” indicates an IC50 ratio greater than or equal to 15 fold but lower than 30 fold) | 
